Test results published in patent US5268003A (priority 1992, dated 1993).

Key:
[1] = Bleaching of tea (BC-1) stained cotton in Terg-o-tometer, reflectance change; conditions: 10 ppm A.O.; for BC-1 ΔΔR pH 8: pH 8, 40° C.; for BC-1 ΔΔR pH 8 / BC-1 ΔΔR pH 9 / BC-1 ΔΔR pH 10: P-Surf base (1.5 g/l), 15 minutes, average of duplicates; for BC-1 ΔΔR pH 9: pH 9, 40° C.; for BC-1 ΔΔR pH 10: pH 10, 40° C.
Experimental: (§1) The bleaching performance of the peracids was evaluated against common stains such as tea (BC-1) and ink. Typically the cotton test pieces (3"×4") were stained with the appropriate stain and washed in a Terg-o-tometer for 15 minutes at 40° C. in a 500 mL aqueous wash solution. Dosage of the peracid was 10 ppm active oxygen.
Stain bleaching was measured reflectometrically using a Colorgard System/05 Reflectometer. Bleaching was indicated by an increase in reflectance, reported as ΔΔR. In general a ΔΔR of one unit is perceivable in a paired comparison while ΔΔR of two units is perceivable monadically. In reporting the reflectance change, the change in reflectance caused by general detergency has been accounted for. Thus ΔΔR can actually be expressed as:
ΔΔR=ΔR peracid+detergent-ΔR detergent
where ΔR is the reflectance difference of the stained fabric after and before washing.
BC-1 experiments were run in duplicate and the value shown is an average. In order to ensure that the solids were as finely dispersed as possible, one of the BC-1 experiments of each pair was usually conducted by predissolving the peracid in 1 ml of DMF; if this value was within 1 unit of the experiment using finely ground peracid, the values were averaged.
(§2) Bleaching Results at 40° C., 10 ppm A.O., P-Surf base (1.5 g

[2] = Bleaching of ink stained cotton in Terg-o-tometer, change in B-axis of Hunter color scale; conditions: pH 9, 40° C., 10 ppm A.O., P-Surf base (1.5 g/l), 15 minutes; corrected for detergent control
Experimental: as §1
Ink stain bleaching was measured as ΔB where the quantity ΔB is the change in the B-axis of the Hunter color scale. The ink stain is initially blue and loses color with bleaching thereby increasing the value of ΔB. Recorded ΔΔB values are ΔB values corrected for the cleaning accomplished by the detergent control.
as §2

[3] = heavy-duty liquid detergent, pH 4.5

| Structure (SMILES) | BC-1 ΔΔR pH 8 [1] | BC-1 ΔΔR pH 8 (DMF value in parenthesis) ([1]; pH 8, peracid predissolved in 1 ml of DMF, 40° C., P-Surf base) | BC-1 ΔΔR pH 9 [1] | BC-1 ΔΔR pH 9 (DMF value in parenthesis) ([1]; pH 9, peracid predissolved in 1 ml of DMF, 40° C., P-Surf base) | BC-1 ΔΔR pH 10 [1] | INK ΔΔB pH 9 [2] | t1/2 at 40° C. [3] [days] |
| --- | --- | --- | --- | --- | --- | --- | --- |
| O=C(Nc1ccccc1NC(=O)c1ccc(C(=O)OO)cc1)c1ccc(C(=O)OO)cc1 [1,2-PCBPD, N,N'-Di(4-percarboxybenzoyl)-1,2-phenylenediamine] | 4.4 | 8.1 | 4.1 | 6.5 | 3.9 | 24.9 | 33 |
| O=C(CCCCC(=O)OO)Nc1ccc(NC(=O)CCCCC(=O)OO)cc1 [DPAPD, N,N'-Di(percarboxyadipoyl)phenylenediamine] | 7.1 | – | 6.7 | – | 4.0 | 8.0 | 32 |
| O=C(Nc1ccc(C(=O)OO)cc1)c1ccc(C(=O)Nc2ccc(C(=O)OO)cc2)cc1 [DPCAT, N,N'-Di(4-Percarboxyaniline)terephthalate] | 1.6 | – | 1.5 | – | 2.3 | 3.1 | 65 |
| O=C(CCCCCN1C(=O)c2ccccc2C1=O)OO [PAP, N-phthaloylamino peroxycaproic acid, reference compound] | – | – | – | – | – | – | 3 |
| O=C(NCCCCNC(=O)c1ccc(C(=O)OO)cc1)c1ccc(C(=O)OO)cc1 [PCBBD, N,N'-Di(4-percarboxybenzoyl)-1,4-butanediamine] | 9.5 | – | 9.4 | – | 6.0 | 28.9 | 15 |
| O=C(NCCNC(=O)c1ccc(C(=O)OO)cc1)c1ccc(C(=O)OO)cc1 [PCBED, N,N'-Di(4-Percarboxybenzoyl)ethylenediamine] | 10.6 | – | 9.0 | – | 5.9 | 19.1 | – |
| O=C(N[C@H]1CC[C@H](NC(=O)c2ccc(C(=O)OO)cc2)CC1)c1ccc(C(=O)OO)cc1 [PCBHEX, N,N'-Di(4-percarboxybenzoyl)-1,4-diaminocyclohexane] | 0.9 | – | 2.1 | – | 3.1 | 4.2 | – |
| O=C(OO)c1ccc(C(=O)N2CCN(C(=O)c3ccc(C(=O)OO)cc3)CC2)cc1 [PCBPIP, N,N'-Di(4-percarboxybenzoyl)piperazine] | 3.0 | – | 2.9 | – | 3.1 | 9.7 | 79 |
| O=C(CCC(=O)Nc1ccc(C(=O)OO)cc1)Nc1ccc(C(=O)OO)cc1 [SDPCA, N,N'-Succinoyl-di(4-percarboxy)aniline] | 2.7 | – | 3.3 | – | 5.0 | 16.8 | 43 |
